# How the values were obtained:
# 5-HT2C = 5-HT2C (Homo sapiens (Human), UniProt P28335); experiment: 5-HT2C binding assay ([3H]-Mesulergine, HEK293 membranes); settings: numeric values
# Description: 5-HT2C Binding Assay Protocol
# The testing compounds were diluted with DMSO, starting at 2 mM, with 8-points and 5-fold serial dilutions.
# 1 μL of a compound of the present disclosure the reference compound (Table J) was transferred to an assay plate. […] 1 μL of DMSO was transferred to an assay plate according to the plate map for total binding (High control: HC).
# (§1) Unifilter-96 GF/C filter plates were soaked with 50 μL of 0.3% PEI per well for about 0.5 hours at room temperature. When the binding assays were complete, the reaction mixture was filtered through the GF/C filter plates using Perkin Elmer Filtermate Harvester, and each plate was washed 4 times with cold wash buffer. The filter plates were dried for 1 hour at 50° C. After drying, the bottom of the filter plate wells were sealed using Perkin Elmer Unifilter-96 backing seal tape. 50 μL of Perkin Elmer Microscint 20 cocktail was added. The top of the filter plates were sealed with Perkin Elmer TopSeal-A sealing film.
# ^3H trapped on filters were counted using Perkin Elmer MicroBeta2 Reader. Inhibition constants were calculated using the following equation:
# [formula] The data was analyzed using Prism 5. The model used was “log(inhibitor) vs. response—Variable slope” to fit the data and calculate IC50. The IC50 was then converted to Ki using the following equation: Ki=IC50/(1+L/Kd), wherein L is the radioligand concentration in the reaction system; Kd is the affinity of radioligand to the receptor.
# D2 = D2 (Homo sapiens (Human), UniProt P14416); experiment: D2 binding assay ([3H] 7-OH-DPAT, HEK293 D2L membranes); settings: numeric values
# Sequence of D2 (P14416 whole entry): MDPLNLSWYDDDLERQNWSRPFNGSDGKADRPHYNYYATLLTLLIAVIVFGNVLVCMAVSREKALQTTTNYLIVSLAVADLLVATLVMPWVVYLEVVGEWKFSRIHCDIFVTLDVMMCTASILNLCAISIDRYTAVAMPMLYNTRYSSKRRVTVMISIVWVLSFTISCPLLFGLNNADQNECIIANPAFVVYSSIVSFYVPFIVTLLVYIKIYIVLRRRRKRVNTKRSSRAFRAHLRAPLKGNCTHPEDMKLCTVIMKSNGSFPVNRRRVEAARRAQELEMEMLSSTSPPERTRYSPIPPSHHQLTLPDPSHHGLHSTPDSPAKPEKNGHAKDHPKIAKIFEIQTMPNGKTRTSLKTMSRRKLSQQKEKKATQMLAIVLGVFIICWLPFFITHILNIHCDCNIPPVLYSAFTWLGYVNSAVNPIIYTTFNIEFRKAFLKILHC
# Description: D2 Binding Assay Protocol
# The testing compounds were diluted with DMSO, starting at 2 mM, with 8-points and 5-fold serial dilutions. droperidol was diluted with DMSO, starting at 0.2 mM, with 8-points and 4-fold serial dilutions.
# 1 μL of a compound of the present disclosure and the reference compound (Table O) was transferred to an assay plate. 1 μL of droperidol was transferred to an assay plate according to the plate map for nonspecific binding (Low control: LC). 1 μL of DMSO was transferred to an assay plate according to the plate map for total binding (High control: HC). Following a plate map, 100 μL of the membrane stock solutions and radio ligand were added into the plate. The plates were sealed and shaken with 300 rpm.
# as §1, with “the GF/B” for “the GF/C”
# ^3H trapped on filters were counted using Perkin Elmer MicroBeta2 Reader. Inhibition constants were calculated using the following equation: […]
# The data was analyzed using Prism 5. The model used was “log(inhibitor) vs. response—Variable slope” to fit the data and calculate IC50. The IC50 was then converted to Ki using the following equation: Ki=IC50/(1+L/Kd), wherein L is the radioligand concentration in the reaction system; Kd is the affinity of radioligand to the receptor. As shown in Table Q Compound No. 7 has a lower affinity for D2 when compared to Compounds A-2, A-3, A-4, and A-5.
# Sequence of 5-HT2C (P28335 33-458): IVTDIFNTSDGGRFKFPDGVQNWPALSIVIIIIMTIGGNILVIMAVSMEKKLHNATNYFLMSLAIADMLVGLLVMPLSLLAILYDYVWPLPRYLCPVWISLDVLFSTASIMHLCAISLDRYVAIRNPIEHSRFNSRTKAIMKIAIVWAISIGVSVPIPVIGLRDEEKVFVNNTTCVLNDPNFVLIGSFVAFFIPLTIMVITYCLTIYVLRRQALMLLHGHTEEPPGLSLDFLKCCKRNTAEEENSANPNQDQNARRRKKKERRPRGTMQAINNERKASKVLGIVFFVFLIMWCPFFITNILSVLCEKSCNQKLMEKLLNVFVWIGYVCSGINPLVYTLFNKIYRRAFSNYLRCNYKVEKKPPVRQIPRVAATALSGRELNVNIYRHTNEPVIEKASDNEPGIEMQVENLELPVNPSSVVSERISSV
smiles,measurement,setting,value
"Cc1ccc2c(c1)N=C(N1CCN(CC(C)(C)C(=O)O)CC1)c1ccc(C)cc1O2 [A-4, 3-(4-(3,8-dimethyldibenzo[b,f][1,4]oxazepin-11-yl)piperazin-1-yl)-2,2-dimethylpropanoic acid, reference compound]",Ki,5-HT2C,0.772 µM
same,Ki,D2,1.9 µM

# Reference: US11046651B2, “Piperazine substituted azapine derivatives and uses thereof” (Alairion, Inc., priority 2019, dated 2021)
